Patent publication US20220323795A1, “COMBINATION OF CICLOPIROXOLAMINE AND PIROCTONE OLAMINE FOR COMBATING DANDRUFF” (PIERRE FABRE DERMO-COSMETIQUE, priority 2019, published 2022)
Like-named read-outs stand apart in the source and are kept apart here.

Assays:
M. globosa (IP2387.96) [1] = experiment: Minimum inhibitory concentration (MIC) by micromethod in liquid medium; format: cell-based, Malassezia globosa; conditions: product alone
Procedure: (§1) The strains originate from the collection of the Institut Pasteur (Fungi collection, Paris France) for M. globosa (IP2387.96) and from the collection of CBS-KNAW for M. restricta (CBS7877). These strains represent and correspond to the majority of strains involved in dandruff. The strains are incubated for 5 days at 30° C. on modified Dixon agar under aerobic conditions. The inoculation suspensions are prepared in sterile distilled water and are concentrated to 10^7 CFU/ml. The determination of the minimum inhibitory concentration (MIC) is performed by micromethod in a liquid medium. 100 μl of liquid culture medium is deposited in each well of a sterile 96-well microplate. 100 μl of the solutions to be tested is deposited in the first well of a line of the plate. Dilutions by a factor of 2 are then carried out for wells 1 to 10. The test suspensions of each microorganism are prepared immediately before use in Tryptone salt. 100 μl is deposited in each well of a second microplate, with the exception of column 11. All of the first plate is inoculated using a Denley multipoint inoculate, from the second microplate. After incubation, the MIC are defined as the largest dilution with the absence of visible growth. Columns 11 and 12 serve respectively as a negative and positive control for growth.
(§2) The products tested are: • ciclopiroxolamine, at 3% (wt/wt) with sterile distilled water, • piroctone olamine at 0.3% (wt/wt) with 10% ethanol, • ketoconazole (positive control) at 1000 μg/ml (wt/wt) with 10% DMSO, • piroctone olamine/ciclopiroxolamine combinations, with respective concentrations of 0.15% and 0.75%.
(§3) The solutions are prepared at the time of the test and used immediately. An ethanol control was produced, solution at 10%.
(§4) The synergistic effect of two products is determined by calculating the synergy index (FIC, Fractional Inhibitory Concentration).
(§5) FIC Index=(MIC product A combined)/(MIC product alone)+(MIC product B combined)/(MIC product B alone).
(§6) The maximum test concentration corresponds to the concentration of the parent solution/2.

M. restricta (CBS7877) [2] = experiment: Minimum fungicide concentration (MFC) by subculturing the MIC microplates on agar medium; format: cell-based, Malassezia restricta
Procedure: as §1, §2
(§7) The determination of the minimum fungicide concentrations (MFC) is carried out by subculturing the MIC microplates on agar medium, using the Denley multipoint inoculator. After incubation, the MFC are defined as the largest dilution with the absence of visible growth. All the tests were carried out in duplicate.

M. restricta (CBS7877) [3] = experiment: Minimum inhibitory concentration (MIC) by micromethod in liquid medium; format: cell-based, Malassezia restricta
Procedure: as §1, §2, §3, §4, §5, §6

M. globosa (IP2387.96) [4] = experiment: Minimum fungicide concentration (MFC) by subculturing the MIC microplates on agar medium; format: cell-based, Malassezia globosa; conditions: product alone
Procedure: as §1, §2, §7

Malassezia globosa = experiment: Fungicidal activity, log reduction of colonies after contact time; format: cell-based; conditions: PO 0.3%, CPO 1.5%, ketoconazole 2%, PO/CPO 0.3%/1.5%, 10^7 CFU/ml
Procedure: (§8) The products to be tested alone and combined at the defined concentrations are placed in contact with a suspension of Malassezia containing 10^7 CFU/ml for a contact time of 5 minutes, 15 minutes and 30 minutes. After each contact time, a sample is taken, then diluted and filtered on a cellulose membrane. Each membrane is then deposited on the agar medium (Dixon) and incubated at 30° C. After incubation, the colonies are counted.
(§9) The products tested are: • ciclopiroxolamine, at 1.5% (wt/wt) diluted with sterile distilled water, • piroctone olamine at 0.3% (wt/wt) dissolved in ethanol, then addition of water for injectable preparations (final ethanol concentration of 9%), • ketoconazole (positive control) at 2% (wt/wt) dissolved in DMSO, then addition of water for injectable preparations (final concentration of DMSO 9%). • piroctone olamine/ciclopiroxolamine combinations, with respective concentrations of 0.3% and 1.5%.
(§10) The solutions are prepared at the time of the test and used immediately.

Malassezia restricta = experiment: as above; format: cell-based; conditions: PO 0.3%, CPO 1.5%, ketoconazole 2%, PO/CPO 0.3%/1.5%, 10^7 CFU/ml
Procedure: as §8, §9, §10

[5] = Malassezia globosa, read-out: MIC
[6] = Malassezia restricta, CBS7877, product alone, read-out: MFC
[7] = Malassezia restricta, CBS7877, product alone, read-out: MIC
[8] = Malassezia globosa, read-out: MFC

CC(=O)N1CCN(c2ccc(OCC3COC(Cn4ccnc4)(c4ccc(Cl)cc4Cl)O3)cc2)CC1 (centres unmarked) [Keto, ketoconazole]
MIC (M. globosa (IP2387.96) [1]; [5]): 0.98 µg/mL | MFC (M. restricta (CBS7877) [2]; [6]): 0.49 to 0.98 µg/mL | MIC (M. restricta (CBS7877) [3]; [7]): 0.49 µg/mL | MFC (M. globosa (IP2387.96) [4]; [8]): 1.94 µg/mL | Log Reduction (Malassezia globosa; contact time 5 minutes): 1.47 | Log Reduction (Malassezia globosa; contact time 15 minutes): 1.29 | Log Reduction (Malassezia globosa; contact time 30 minutes): 1.19 | Log Reduction (Malassezia restricta; contact time 5 minutes): 0.85 | Log Reduction (Malassezia restricta; contact time 15 minutes): 1.12 | Log Reduction (Malassezia restricta; contact time 30 minutes): 1.09

Cc1cc(C2CCCCC2)n(O)c(=O)c1 [CPO, ciclopiroxolamine]
MIC (M. globosa (IP2387.96) [1]; [5]): 29 µg/mL | MIC (M. globosa (IP2387.96) [1]; % (wt/wt)): 2.9 × 10^−3% | MFC (M. restricta (CBS7877) [2]; [6]): 15 µg/mL | MFC (M. restricta (CBS7877) [2]; product alone, % (wt/wt)): 1.5 × 10^−3% | MIC (M. restricta (CBS7877) [3]; [7]): 15 µg/mL | MIC (M. restricta (CBS7877) [3]; product alone, % (wt/wt)): 1.5 × 10^−3% | MFC (M. globosa (IP2387.96) [4]; [8]): 29 µg/mL | MFC (M. globosa (IP2387.96) [4]; % (wt/wt)): 2.9 × 10^−3% | Log Reduction (Malassezia globosa; contact time 5 minutes): 2.45 | Log Reduction (Malassezia globosa; contact time 15 minutes): 3.88 | Log Reduction (Malassezia globosa; contact time 30 minutes): >4.22 | Log Reduction (Malassezia restricta; contact time 5 minutes): 1.99 | Log Reduction (Malassezia restricta; contact time 15 minutes): 3.3 | Log Reduction (Malassezia restricta; contact time 30 minutes): >4.17

Cc1cc(CC(C)CC(C)(C)C)n(O)c(=O)c1.NCCO (centres unmarked) [PO, piroctone olamine]
MIC (M. globosa (IP2387.96) [1]): 23 µg/mL | MIC (M. globosa (IP2387.96) [1]; % (wt/wt)): 2.3 × 10^−3% | MFC (M. restricta (CBS7877) [2]; product alone): 23 µg/mL | MFC (M. restricta (CBS7877) [2]; product alone, % (wt/wt)): 2.3 × 10^−3% | MIC (M. restricta (CBS7877) [3]; product alone): 23 µg/mL | MIC (M. restricta (CBS7877) [3]; product alone, % (wt/wt)): 2.3 × 10^−3% | MFC (M. globosa (IP2387.96) [4]): 23 µg/mL | MFC (M. globosa (IP2387.96) [4]; % (wt/wt)): 2.3 × 10^−3% | Log Reduction (Malassezia globosa; contact time 5 minutes): 0.36 | Log Reduction (Malassezia globosa; contact time 15 minutes): 0.61 | Log Reduction (Malassezia globosa; contact time 30 minutes): 1.24 | Log Reduction (Malassezia restricta; contact time 5 minutes): 1.19 | Log Reduction (Malassezia restricta; contact time 15 minutes): 1.28 | Log Reduction (Malassezia restricta; contact time 30 minutes): 1.73
